Data published in patent publication US20050208496A1, “Methods of testing for bronchial asthma or chronic obstructive pulmonary disease” (Genox Research, Inc., priority 2002, published 2005).

System: respiratory epithelial cells

“IL-13: human IL-13 (Peprotech, Inc.) added to the medium at 50 ng/mL to stimulate respiratory epithelial cells” was tested, and the “AI948584 48086_at expression change” value (lot 1, Day 7, AI) was −3.9, the “AI971023 48539_at expression change” value (lot 1, Day 7, AI) was −2.1 and the “AI984780 (52384_s_at) expression change” value (lot 1, Day 7, AI) was −2.5. For the same substance, the “AL040936 (45684_at) expression change” value (lot 1, Day 7, AI) was −2.3, the “AQP5 32909_at expression change” value (lot 1, Day 7, AI) was −3.4 and the “ARHGEF4 36524_at expression change” value (lot 1, Day 7, AI) was −4.1. The “ARHV (82231_at) expression change” value (lot 1, Day 7, AI) was −2.7, the “AW022213 (79520_at) expression change” value (lot 1, Day 7, AI) was −2.6 and the “AW025596 52634_at expression change” value (lot 1, Day 7, AI) was −2.5. The “AW025596 52637_g_at expression change” value (lot 1, Day 7, AI) was −5.7, the “B4GALT5 56373_at expression change” value (lot 1, Day 7, AI) was −2.2 and the “BARX2 35425_at expression change” value (lot 1, Day 7, AI) was −2.4. The “BPGM (51261_at) expression change” value (lot 1, Day 7, AI) was −3.7, the “CBLB 514_at expression change” value (lot 1, Day 7, AI) was −4.2 and the “CBLB 35632_at expression change” value (lot 1, Day 7, AI) was −2. The “COL12A1 (44730_at) expression change” value (lot 1, Day 7, AI) was −3.5, the “CRABP-II 1057_at expression change” value (lot 1, Day 7, AI) was −5.4 and the “CRABP-II 41783_at expression change” value (lot 1, Day 7, AI) was −8.8. The “Clorf28 50075_at expression change” value (lot 1, Day 7, AI) was −3.5, the “DHCR24 (74557_s_at) expression change” value (lot 1, Day 7, AI) was −2 and the “DKFZp434K1210 44682_at expression change” value (lot 1, Day 7, AI) was −2.1. The “DSC3 (79615_at) expression change” value (lot 1, Day 7, AI) was −2.4, the “DSC3a, b 47119_at expression change” value (lot 1, Day 7, AI) was −2.8 and the “DSC3a, b 79615_at expression change” value (lot 1, Day 7, AI) was −2.4. For the same substance, the “EVPK 39569_at expression change” value (lot 1, Day 7, AI) was −2, the “FKBP5 (46271_at) expression change” value (lot 1, Day 7, AI) was −2.3 and the “FLJ10298 (62490_f_at) expression change” value (lot 1, Day 7, AI) was −4.5. For the same substance, the “FLJ10718 52072_at expression change” value (lot 1, Day 7, AI) was −3.8, the “FLJ12541 43546_at expression change” value (lot 1, Day 7, AI) was −10.1 and the “FLJ20048 (49196_at) expression change” value (lot 1, Day 7, AI) was −4.3. The “FLJ20500 43853_at expression change” value (lot 1, Day 7, AI) was −2.1, the “FLJ23309 45563_f_at expression change” value (lot 1, Day 7, AI) was −2 and the “FLJ23516 47534_at expression change” value (lot 1, Day 7, AI) was −4.1. For the same substance, the “GABRP 40339_at expression change” value (lot 1, Day 7, AI) was −2.1, the “GAS41 (64121_at) expression change” value (lot 1, Day 7, AI) was −2 and the “GJA1 32531_at expression change” value (lot 1, Day 7, AI) was −8.8. The “GK (61873_at) expression change” value (lot 1, Day 7, AI) was −2.7, the “GPD2 42720_at expression change” value (lot 1, Day 7, AI) was −2 and the “GSTA3 58023 at expression change” value (lot 1, Day 7, AI) was −2.7. The “HEY1 44783_s_at expression change” value (lot 1, Day 7, AI) was −4.5, the “HIN-1 (46200_at) expression change” value (lot 1, Day 7, AI) was −32.7 and the “HSPC195 44705_at expression change” value (lot 1, Day 7, AI) was −2.4. For the same substance, the “ID1 36619_r_at expression change” value (lot 1, Day 7, AI) was −8, the “IL20RA 42969_at expression change” value (lot 1, Day 7, AI) was −2.1 and the “IVL 36355_at expression change” value (lot 1, Day 7, AI) was −3.7. For the same substance, the “KCNMA1 (47575_g_at) expression change” value (lot 1, Day 7, AI) was −5.2, the “KCNMA1 (53796_at) expression change” value (lot 1, Day 7, AI) was −2.8 and the “KIAA0878 (48793_at) expression change” value (lot 1, Day 7, AI) was −2.8. For the same substance, the “KIAA1376 (62972_at) expression change” value (lot 1, Day 7, AI) was −2.2, the “KIAA1376 (64047_at) expression change” value (lot 1, Day 7, AI) was −4 and the “KIAA1547 58531_g_at expression change” value (lot 1, Day 7, AI) was −2.6. For the same substance, the “KLF7 (42769_at) expression change” value (lot 1, Day 7, AI) was −2.3, the “KRT6B (62998_at) expression change” value (lot 1, Day 7, AI) was −5.6 and the “KRT15 37582_at expression change” value (lot 1, Day 7, AI) was −2.6. The “LCE 45605_at expression change” value (lot 1, Day 7, AI) was −2.6, the “LMO4 1452_at expression change” value (lot 1, Day 7, AI) was −2 and the “LOC51297 (55440_at) expression change” value (lot 1, Day 7, AI) was −60.6. The “LOC51297 (55442_g_at) expression change” value (lot 1, Day 7, AI) was −181.3, the “LOC51316 (63342_at) expression change” value (lot 1, Day 7, AI) was −2.4 and the “LOC55893 (64071_at) expression change” value (lot 1, Day 7, AI) was −3.5. For the same substance, the “LOC129642 (42065_at) expression change” value (lot 1, Day 7, AI) was −5.4, the “LOC129642 (58288_at) expression change” value (lot 1, Day 7, AI) was −7.2 and the “LOC131177 (43849_s_at) expression change” value (lot 1, Day 7, AI) was −2.6. The “LOC131177 (45394_s_at) expression change” value (lot 1, Day 7, AI) was −2.3, the “MGC12536 46924_at expression change” value (lot 1, Day 7, AI) was −4.9 and the “MGC13102 (54791_at) expression change” value (lot 1, Day 7, AI) was −3.9. The “MGC14128 55924_at expression change” value (lot 1, Day 7, AI) was −5.1, the “MGC14128 (51669_r_at) expression change” value (lot 1, Day 7, AI) was −4.4 and the “MGC14597 (46030_at) expression change” value (lot 1, Day 7, AI) was −3.7. For the same substance, the “MGC16207 43412_s_at expression change” value (lot 1, Day 7, AI) was −2.6, the “MGC16207 (65876_at) expression change” value (lot 1, Day 7, AI) was −4 and the “N52554 47432_at expression change” value (lot 1, Day 7, AI) was −2.7. For the same substance, the “N71183 52473_at expression change” value (lot 1, Day 7, AI) was −2.3, the “PSCA (63958_at) expression change” value (lot 1, Day 7, AI) was −6.5 and the “RAC2 32737_at expression change” value (lot 1, Day 7, AI) was −4.9. For the same substance, the “RIN1 1778_g_at expression change” value (lot 1, Day 7, AI) was −2.1, the “SCNN1B 39682_at expression change” value (lot 1, Day 7, AI) was −7.6 and the “SEMA4B (46709_at) expression change” value (lot 1, Day 7, AI) was −3.6. The “SERPINA3 (75248_at) expression change” value (lot 1, Day 7, AI) was −24.4, the “SLC11A3 (45826_at) expression change” value (lot 1, Day 7, AI) was −3.3 and the “SLC34A2 (48048_at) expression change” value (lot 1, Day 7, AI) was −2. For the same substance, the “SPON2 52576_s_at expression change” value (lot 1, Day 7, AI) was −3, the “SPRR1B 37160_at expression change” value (lot 1, Day 7, AI) was −2.1 and the “STEAP 40297_at expression change” value (lot 1, Day 7, AI) was −3.1. The “T52027 (63150_at) expression change” value (lot 1, Day 7, AI) was −2.9, the “TCF8 33439_at expression change” value (lot 1, Day 7, AI) was −2.1 and the “TGFBI (68339_at) expression change” value (lot 1, Day 7, AI) was −4.2. For the same substance, the “TNFAIP2 (74633_at) expression change” value (lot 1, Day 7, AI) was −4.6, the “TNNT1 36113_s_at expression change” value (lot 1, Day 7, AI) was −5.5 and the “TPM1 36790_at expression change” value (lot 1, Day 7, AI) was −3.3. The “TPM1 36791_g_at expression change” value (lot 1, Day 7, AI) was −3.2, the “TPM1 36792_at expression change” value (lot 1, Day 7, AI) was −3.9 and the “UCP2 37591_at expression change” value (lot 1, Day 7, AI) was −12.7. The “UGB 39220_at expression change” value (lot 1, Day 7, AI) was −28.1, the “VEGFC 1934_s_at expression change” value (lot 1, Day 7, AI) was −2.4 and the “VIM 34091_s_at expression change” value (lot 1, Day 7, AI) was −9.4. For the same substance, the “W55956 46700_at expression change” value (lot 1, Day 7, AI) was −2.3, the “W72331 49486 at expression change” value (lot 1, Day 7, AI) was −3.4 and the “AA167714 (54897_at) expression fold change” value (lot 1, Day 7, AI method) was 3.9 fold. For the same substance, the “AA420479 (52539_at) expression fold change” value (lot 1, Day 7, AI method) was 4.1 fold, the “AA582926 (52307_at) expression fold change” value (lot 1, Day 7, AI method) was 3.8 fold and the “AA604375 (44127_at) expression fold change” value (lot 1, Day 7, AI method) was 2.5 fold. The “ACP5 (677_s_at) expression, fold change upon IL-13 stimulation” value (lot 1, Day 7, AI method) was 2.5 fold, the “ADAM8 (40712_at) expression, fold change upon IL-13 stimulation” value (lot 1, Day 7, AI method) was 5.1 fold and the “ADAM28 (35479_at) expression, fold change upon IL-13 stimulation” value (lot 1, Day 7, AI method) was 5 fold. For the same substance, the “AI565105 (54886_at) expression fold change” value (lot 1, Day 7, AI method) was 2.4 fold and the “AI659927 (54033_at) expression fold change” value (lot 1, Day 7, AI method) was 4.2 fold.
